Results as given in patent US7811352B2, “Fertilizer compositions and methods of using” (priority 2005, dated 2010).

How the values were obtained:
[1] = test system: Floratam St. Augustine grass; experiment: Phytotoxicity rating, St. Augustine grass (Example 9); format: in vivo; conditions: for Phytotoxicity - St. Augustine Grass: scale 0-5, 5=worst
Excerpt: In this Example, the effect of a fertilizer comprising lysine on warn season turfgrass growth was examined. The effects of lysine (HCl) and LIQUID LYSINE on a common type of lawn quality turfgrass (St. Augustine grass) were compared with those of urea and Milorganite. St. Augustine grass is a commonly utilized turfgrass throughout the warm, tropical zones for lawn turf and is a commercially significant species.
Twelve fertilizer treatments comprising three concentrations of each fertilizer composition (Milorganite (N—P—K, 6-2-0), urea N—P—K, 46-0-0), LIQUID LYSINE (N—P—K, 10-2-1), and lysine (HCl) (N—P—K, 15-2-1)) were prepared and applied to 4 replications of Floratam St. Augustine grass. The lysine (HCl) was dissolved in water prior to application. Each fertilizer treatment was applied in concentrations of 0.5 lb N/1000 ft^2/month, 1.0 lb N/1000 ft^2/month and 3.0 lb N/1000 ft^2/month. The urea, LIQUID LYSINE and lysine (HCl) were applied as foliar liquids, while Milorganite was applied as a granular fertilizer. Plot size was 1 m×2 m set up as a randomized complete block. Plots were mowed at 3.0 inches before fertilizer application. Irrigation (0.15 inch) was applied following application. Plots were rated for turfgrass quality and color (scale of 1-10 where 10=dark green turf, 1=dead/brown turf; and 6=minimally acceptable turf) and phytotoxicity (scale of 0-5, where 5=worst, and 2=minimally objectionable) throughout the study period. Quality, color, and phytotoxicity were measured on 2 days before application (day −2) and day 2, day 5, day 15 and day 21 after application. All data was subject to statistical analysis and significant means were determined. Average turfgrass quality ratings for the treatments are presented in Table 6 and the quality results for application rates of 1.0 lb N/1000 ft^2/month are graphically presented in FIG. 2.

[2] = test system: total soil bacteria and fungi; experiment: Soil microbial population (plate count) after fertilizer application to Kentucky bluegrass turf (Example 8); conditions: 1.0 lb N/1000 ft^2; 24, 48 and 72 hours after application
Method: In this Example, the effect on various embodiments of the fertilizer composition on soil microbial population (bacterial and fungal) was examined. The Example compared the effect on total microbial populations 24, 48 and 72 hours after application of the fertilizer to a Kentucky bluegrass turf.
The following fertilizer compositions were used: urea, dry lysine (lysine (HCl), LIQUID LYSINE brand aqueous lysine solution (available from Archer-Daniels-Midland Company, Decatur, Ill.), a threonine cell mass, a lysine cell mass, and soy/lysine combination (a granular mixture of dry lysine and soy flour, soy flakes and soybean oil. Analysis of the threonine cell mass is presented in Table 5. The effect of the fertilizer compositions on microbial population were compared with a control plot to which no fertilizer composition was applied. The dry lysine was dissolved in water and applied by spraying on the turf plot. The fertilizer compositions were applied at a rate of 1.0 lb N/1000 ft^2 of Kentucky bluegrass turf Soil samples from the turf were analyzed for total soil bacteria and fungi by standard plate count and dilution series.

[3] = test system: ultra-dwarf Bermuda grass; experiment: Turfgrass quality and color ratings, ultra-dwarf Bermuda grass greens (Example 11); format: in vivo; set-up: key: 1-10 scale: 10 = dark green, 6 = initially acceptable, 1 = dead/brown; conditions: scale 1-10
Excerpt: In this Example, the effect of a fertilizer comprising lysine on warm season turfgrass growth was examined. The effects of lysine (HCl) and LIQUID LYSINE on a common type of golf course greens quality turfgrass (ultra-dwarf Bermuda grass) were compared with those of urea and Milorganite.
Twelve fertilizer treatments comprising three concentrations of each fertilizer composition (Milorganite (N—P—K, 6-2-0), urea (N—P—K, 46-0-0), LIQUID LYSINE (N—P—K, 10-2-1), and lysine (HCl) (N—P—K, 15-2-1)) were prepared and applied to 3 replications of ultra-dwarf Bermuda grass. The lysine (HCl) was dissolved in water prior to application. Each fertilizer treatment was applied in concentrations of 0.125 lb N/1000 ft^2/week, 0.25 lb N/1000 ft^2/week and 0.75 lb N/1000 ft^2/week. The urea, LIQUID LYSINE and lysine (HCl) were applied as foliar liquids, while Milorganite was applied as a granular fertilizer. Plot size was 1 m×1 m set up as a randomized complete block. Plots were mowed at 0.125 inches before fertilizer application. Irrigation (0.15 inch) was applied following application. Plots were rated for turfgrass quality and color (scale of 1-10 where 10=dark green turf, 1=dead/brown turf, and 6=initially acceptable turf) and phytotoxicity (scale of 0-5, where 5=worst, and 2=minimally objectionable) throughout the study period. Quality, color, and phytotoxicity were measured on 2 days before application (day −2) and day 2, day 5, day 15 and day 21 after application. All data was subject to statistical analysis and significant means were determined. Average turfgrass quality ratings for the treatments are presented in Table 12 and the quality results for application rates of 0.25 lb N/1000 ft^2/week are graphically presented in FIG. 6.

[4] = Monthly Rate 0.5 lbs N/1000 ft^2, Day 2
[5] = Monthly Rate 0.5 lbs N/1000 ft^2, Day 5
[6] = Monthly Rate 0.5 lbs N/1000 ft^2, Day 15
[7] = Monthly Rate 0.5 lbs N/1000 ft^2, Day 21
[8] = Monthly Rate 0.5 lbs N/1000 ft^2, Day −2 (before application)
[9] = Monthly Rate 1.0 lbs N/1000 ft^2, Day 2
[10] = Monthly Rate 1.0 lbs N/1000 ft^2, Day 5
[11] = Monthly Rate 1.0 lbs N/1000 ft^2, Day 15
[12] = Monthly Rate 1.0 lbs N/1000 ft^2, Day 21
[13] = Monthly Rate 1.0 lbs N/1000 ft^2, Day −2 (before application)
[14] = Monthly Rate 3.0 lbs N/1000 ft^2, Day 2
[15] = Monthly Rate 3.0 lbs N/1000 ft^2, Day 5
[16] = Monthly Rate 3.0 lbs N/1000 ft^2, Day 15
[17] = Monthly Rate 3.0 lbs N/1000 ft^2, Day 21
[18] = Monthly Rate 3.0 lbs N/1000 ft^2, Day −2 (before application)
[19] = Weekly Rate 0.125 lbs N/1000 ft^2, Day 2
[20] = Weekly Rate 0.125 lbs N/1000 ft^2, Day 5
[21] = Weekly Rate 0.125 lbs N/1000 ft^2, Day 15
[22] = Weekly Rate 0.125 lbs N/1000 ft^2, Day 21
[23] = Weekly Rate 0.125 lbs N/1000 ft^2, Day −2 (before application)
[24] = Weekly Rate 0.25 lbs N/1000 ft^2, Day 2
[25] = Weekly Rate 0.25 lbs N/1000 ft^2, Day 5
[26] = Weekly Rate 0.25 lbs N/1000 ft^2, Day 15
[27] = Weekly Rate 0.25 lbs N/1000 ft^2, Day 21
[28] = Weekly Rate 0.25 lbs N/1000 ft^2, Day −2 (before application)
[29] = Weekly Rate 0.75 lbs N/1000 ft^2, Day 2
[30] = Weekly Rate 0.75 lbs N/1000 ft^2, Day 5
[31] = Weekly Rate 0.75 lbs N/1000 ft^2, Day 15
[32] = Weekly Rate 0.75 lbs N/1000 ft^2, Day 21
[33] = Weekly Rate 0.75 lbs N/1000 ft^2, Day −2 (before application)

For `NC(N)=O` [Urea, urea, reference compound], the phytotoxicity ([1]; 1.0 lb N/1000 ft^2 and 3.0 lb N/1000 ft^2 application rate) was “some phytotoxicity”, the “Phytotoxicity - St. Augustine Grass” value [1, 4] was 0.6bc and the “Phytotoxicity - St. Augustine Grass” value [1, 5] was 1.6bc. For the same molecule, the “Phytotoxicity - St. Augustine Grass” value [1, 6] was 0, the “Phytotoxicity - St. Augustine Grass” value [1, 7] was 0 and the “Phytotoxicity - St. Augustine Grass” value [1, 8] was 0. For the same molecule, the “Phytotoxicity - St. Augustine Grass” value [1, 9] was 1.5b, the “Phytotoxicity - St. Augustine Grass” value [1, 10] was 2.0ab and the “Phytotoxicity - St. Augustine Grass” value [1, 11] was 0. The “Phytotoxicity - St. Augustine Grass” value [1, 12] was 0, the “Phytotoxicity - St. Augustine Grass” value [1, 13] was 0 and the “Phytotoxicity - St. Augustine Grass” value [1, 14] was 2.8a. The “Phytotoxicity - St. Augustine Grass” value [1, 15] was 3.0a, the “Phytotoxicity - St. Augustine Grass” value [1, 16] was 0 and the “Phytotoxicity - St. Augustine Grass” value [1, 17] was 0. The “Phytotoxicity - St. Augustine Grass” value [1, 18] was 0, the “soil microbial populations compared with controls” value [2] was “did not significantly differ” and the “Color Rating - Dwarf Bermuda Grass” value [3, 19] was 7.7ab. The “Quality Ratings - Dwarf Bermuda Grass” value [3, 19] was 7.7abc, the “Color Rating - Dwarf Bermuda Grass” value [3, 20] was 7.7ab and the “Quality Ratings - Dwarf Bermuda Grass” value [3, 20] was 7.5bc. For the same molecule, the “Color Rating - Dwarf Bermuda Grass” value [3, 21] was 7.2bcd, the “Quality Ratings - Dwarf Bermuda Grass” value [3, 21] was 7.0bcd and the “Color Rating - Dwarf Bermuda Grass” value [3, 22] was 6.8bc. The “Quality Ratings - Dwarf Bermuda Grass” value [3, 22] was 6.7abc, the “Color Rating - Dwarf Bermuda Grass” value [3, 23] was 7.0 and the “Quality Ratings - Dwarf Bermuda Grass” value [3, 23] was 6.5. For the same molecule, the “Color Rating - Dwarf Bermuda Grass” value [3, 24] was 7.7ab, the “Quality Ratings - Dwarf Bermuda Grass” value [3, 24] was 7.7abc and the “Color Rating - Dwarf Bermuda Grass” value [3, 25] was 7.3abc. For the same molecule, the “Quality Ratings - Dwarf Bermuda Grass” value [3, 25] was 7.5bc, the “Color Rating - Dwarf Bermuda Grass” value [3, 26] was 7.3bc and the “Quality Ratings - Dwarf Bermuda Grass” value [3, 26] was 7.0bcd. The “Color Rating - Dwarf Bermuda Grass” value [3, 27] was 7.3ab, the “Quality Ratings - Dwarf Bermuda Grass” value [3, 27] was 6.8abc and the “Color Rating - Dwarf Bermuda Grass” value [3, 28] was 6.7. For the same molecule, the “Quality Ratings - Dwarf Bermuda Grass” value [3, 28] was 6.3, the “Color Rating - Dwarf Bermuda Grass” value [3, 29] was 7.8a and the “Quality Ratings - Dwarf Bermuda Grass” value [3, 29] was 8.2a. The “Color Rating - Dwarf Bermuda Grass” value [3, 30] was 7.8a, the “Quality Ratings - Dwarf Bermuda Grass” value [3, 30] was 8.3a and the “Color Rating - Dwarf Bermuda Grass” value [3, 31] was 8.0a. For the same molecule, the “Quality Ratings - Dwarf Bermuda Grass” value [3, 31] was 7.5ab, the “Color Rating - Dwarf Bermuda Grass” value [3, 32] was 7.8a and the “Quality Ratings - Dwarf Bermuda Grass” value [3, 32] was 7.3a. For the same molecule, the “Color Rating - Dwarf Bermuda Grass” value [3, 33] was 6.8 and the “Quality Ratings - Dwarf Bermuda Grass” value [3, 33] was 6.3.

For `Cl.NCCCC[C@H](N)C(=O)O` [Lys (HCl) 15% N, L-lysine monohydrochloride], the “Phytotoxicity - St. Augustine Grass” value [1, 4] was 0.0c, the “Phytotoxicity - St. Augustine Grass” value [1, 5] was 0.4cd and the “Phytotoxicity - St. Augustine Grass” value [1, 6] was 0. The “Phytotoxicity - St. Augustine Grass” value [1, 7] was 0, the “Phytotoxicity - St. Augustine Grass” value [1, 8] was 0 and the “Phytotoxicity - St. Augustine Grass” value [1, 9] was 0.0c. For the same molecule, the “Phytotoxicity - St. Augustine Grass” value [1, 10] was 1.1bcd, the “Phytotoxicity - St. Augustine Grass” value [1, 11] was 0 and the “Phytotoxicity - St. Augustine Grass” value [1, 12] was 0. The “Phytotoxicity - St. Augustine Grass” value [1, 13] was 0, the “Phytotoxicity - St. Augustine Grass” value [1, 14] was 0.4bc and the “Phytotoxicity - St. Augustine Grass” value [1, 15] was 1.1bcd. For the same molecule, the “Phytotoxicity - St. Augustine Grass” value [1, 16] was 0, the “Phytotoxicity - St. Augustine Grass” value [1, 17] was 0 and the “Phytotoxicity - St. Augustine Grass” value [1, 18] was 0. For the same molecule, the “soil microbial populations compared with controls” value [2] was “did not significantly differ”, the “Color Rating - Dwarf Bermuda Grass” value [3, 19] was 7.2bc and the “Quality Ratings - Dwarf Bermuda Grass” value [3, 19] was 7.3bcd. For the same molecule, the “Color Rating - Dwarf Bermuda Grass” value [3, 20] was 7.0cd, the “Quality Ratings - Dwarf Bermuda Grass” value [3, 20] was 6.7de and the “Color Rating - Dwarf Bermuda Grass” value [3, 21] was 6.8c-f. For the same molecule, the “Quality Ratings - Dwarf Bermuda Grass” value [3, 21] was 6.3ef, the “Color Rating - Dwarf Bermuda Grass” value [3, 22] was 6.5cd and the “Quality Ratings - Dwarf Bermuda Grass” value [3, 22] was 6.2cd. The “Color Rating - Dwarf Bermuda Grass” value [3, 23] was 6.8, the “Quality Ratings - Dwarf Bermuda Grass” value [3, 23] was 6.8 and the “Color Rating - Dwarf Bermuda Grass” value [3, 24] was 7.2bc. For the same molecule, the “Quality Ratings - Dwarf Bermuda Grass” value [3, 24] was 7.2cd, the “Color Rating - Dwarf Bermuda Grass” value [3, 25] was 7.2bcd and the “Quality Ratings - Dwarf Bermuda Grass” value [3, 25] was 7.2cd. The “Color Rating - Dwarf Bermuda Grass” value [3, 26] was 7.2bcd, the “Quality Ratings - Dwarf Bermuda Grass” value [3, 26] was 7.2abc and the “Color Rating - Dwarf Bermuda Grass” value [3, 27] was 7.3ab. For the same molecule, the “Quality Ratings - Dwarf Bermuda Grass” value [3, 27] was 7.2ab, the “Color Rating - Dwarf Bermuda Grass” value [3, 28] was 7.0 and the “Quality Ratings - Dwarf Bermuda Grass” value [3, 28] was 6.5. For the same molecule, the “Color Rating - Dwarf Bermuda Grass” value [3, 29] was 7.3abc, the “Quality Ratings - Dwarf Bermuda Grass” value [3, 29] was 7.5abc and the “Color Rating - Dwarf Bermuda Grass” value [3, 30] was 7.2bcd. For the same molecule, the “Quality Ratings - Dwarf Bermuda Grass” value [3, 30] was 7.5bc, the “Color Rating - Dwarf Bermuda Grass” value [3, 31] was 7.7ab and the “Quality Ratings - Dwarf Bermuda Grass” value [3, 31] was 7.3abc. The “Color Rating - Dwarf Bermuda Grass” value [3, 32] was 7.2b, the “Quality Ratings - Dwarf Bermuda Grass” value [3, 32] was 6.8abc and the “Color Rating - Dwarf Bermuda Grass” value [3, 33] was 6.7. For the same molecule, the “Quality Ratings - Dwarf Bermuda Grass” value [3, 33] was 6.5.
